{
  "source": "patent US9062028B2",
  "about": "“Bicyclic nitrogen containing heteroaryl TGR5 receptor modulators” (Bristol-Myers Squibb Company, priority 2011, dated 2015)",
  "note": "pEC50: −log10 of the molar value. Counter-ions that a name gives are not always drawn.",
  "data": [
    {"target": "T1, recombinant human TGR5 (Homo sapiens, UniProt Q8TDU6)", "T1 construct": "expressed in transfected cells", "T1 sequence (Q8TDU6 1-330)": "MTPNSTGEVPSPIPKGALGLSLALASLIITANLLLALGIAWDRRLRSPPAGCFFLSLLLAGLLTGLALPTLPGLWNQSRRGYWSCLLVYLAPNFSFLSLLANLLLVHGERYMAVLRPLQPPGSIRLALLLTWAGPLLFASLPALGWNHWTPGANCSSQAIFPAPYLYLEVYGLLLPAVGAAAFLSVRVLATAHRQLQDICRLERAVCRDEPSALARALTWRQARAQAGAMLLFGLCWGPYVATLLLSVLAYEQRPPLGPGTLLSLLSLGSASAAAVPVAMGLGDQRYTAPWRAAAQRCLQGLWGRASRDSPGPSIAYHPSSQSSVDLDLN", "assay": "cAMP assay (cAMP accumulation, HTRF) in CHOK1 cells stably expressing TGR5", "format": "cell-based", "settings": "CHOK1 cells stably expressing human TGR5, 30 minutes at RT, 1% DMSO", "in_short": "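Agonist-induced cAMP accumulation: stable TGR5-CHOK1 cells treated 30 min at RT with compound (1% DMSO) plus 0.1 mM IBMX. HTRF ratio converted to nM cAMP via standard curve; EC50 from four-parameter logistic fit, midpoint between baseline and maximum.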", "values": [
      {"smiles": "Cc1cccc(OCCCC(=O)N2CCSc3c(-c4cnn(Cc5c(F)cc(C(=O)NCC(=O)O)cc5Cl)c4)cccc32)c1C", "note": "[Example 576, 2-(3-Chloro-4-((4-(4-(4-(2,3-dimethylphenoxy)butanoyl)-3,4-dihydro-2H-benzo[b][1,4]thiazin-8-yl)-1H-pyrazol-1-yl)methyl)-5-fluorobenzamido) acetic acid]", "pEC50": 7.32},
      {"smiles": "Cc1c(Cl)cccc1OCCCC(=O)N1CCSc2c(-c3cnn(Cc4c(F)cc(C(=O)NCCC(=O)O)cc4Cl)c3)cccc21", "note": "[Example 577, 3-(3-Chloro-4-((4-(4-(4-(3-chloro-2-methylphenoxy)butanoyl)-3,4-dihydro-2H-benzo[b][1,4]thiazin-8-yl)-1H-pyrazol-1-yl)methyl)-5-fluorobenzamido)propanoic acid]", "pEC50": 7.51},
      {"smiles": "Cc1cccc(OCCCC(=O)N2CCSc3c(-c4cnn(Cc5c(F)cc(C(=O)NCS(=O)(=O)O)cc5Cl)c4)cccc32)c1C", "note": "[Example 578, (3-Chloro-4-((4-(4-(4-(2,3-dimethylphenoxy)butanoyl)-3,4-dihydro-2H-benzo[b][1,4]thiazin-8-yl)-1H-pyrazol-1-yl)methyl)-5-fluorobenzamido) methanesulfonic acid]", "pEC50": 7.35},
      {"smiles": "Cc1c(Cl)cccc1OCCCC(=O)N1CCSc2c(-c3cnn(Cc4c(F)cc(C(=O)NCC(=O)O)cc4Cl)c3)cccc21", "note": "[Example 581, 2-(3-Chloro-4-((4-(4-(4-(3-chloro-2-methylphenoxy)butanoyl)-3,4-dihydro-2H-benzo[b][1,4]thaizin-8-yl)-1H-pyrazol-1-yl)methyl)-5-fluorobenzamido)acetic acid]", "pEC50": 7.42},
      {"smiles": "Cc1c(Cl)cccc1OCCCC(=O)N1CCSc2c(-c3cnn(Cc4c(F)cc(C(=O)NCCC[C@H](N)C(=O)O)cc4Cl)c3)cccc21", "note": "[Example 583, (S)-2-Amino-5-(3-chloro-4-((4-(4-(4-(3-chloro-2-methylphenoxy)butanoyl)-3,4-dihydro-2H-benzo[b][1,4]thiazin-8-yl)-1H-pyrazol-1-yl)methyl)-5-fluorobenzamido) pentanoic acid]", "pEC50": 7.37},
      {"smiles": "Cc1c(Cl)cccc1OCCCC(=O)N1CCSc2c(-c3cnn(Cc4cccc(C(=O)NCCO)c4)c3)cccc21", "note": "[Example 592, 3-((4-(4-(4-(3-Chloro-2-methylphenoxy)butanoyl)-3,4-dihydro-2H-benzo[b][1,4]thiazin-8-yl)-1H-pyrazol-1-yl)methyl)-N-(2-hydroxyethyl) benzamide]", "pEC50": 7.52},
      {"smiles": "Cc1c(Cl)cccc1OCCCC(=O)N1CCSc2c(-c3cnn(Cc4cccc(C(=O)NCC(C)(C)O)c4)c3)cccc21", "note": "[Example 593, 3-((4-(4-(4-(3-Chloro-2-methylphenoxy)butanoyl)-3,4-dihydro-2H-benzo[b][1,4]thiazin-8-yl)-1H-pyrazol-1-yl)methyl)-N-(2-hydroxy-2-methylpropyl)benzamide]", "pEC50": 7.38},
      {"smiles": "Cc1cccc(OCCOC(=O)N2CCSc3c(-c4cnn(Cc5cccc(C(=O)NCCS(=O)(=O)O)c5)c4)cccc32)c1C", "note": "[Example 597, 2-(3-((4-(4-((2-(2,3-Dimethylphenoxy)ethoxy)carbonyl)-3,4-dihydro-2H-benzo[b][1,4]thiazin-8-yl)-1H-pyrazol-1-yl)methyl)benzamido)ethanesulfonic acid]", "pEC50": 6.76},
      {"smiles": "Cc1cccc(OCCCC(=O)N2CCSc3c(-c4cnn(Cc5cccc(C(=O)NCCO)c5)c4)cccc32)c1C", "note": "[Example 600, 3-((4-(4-(4-(2,3-Dimethylphenoxy)butanoyl)-3,4-dihydro-2H-benzo[b][1,4]thiazin-8-yl)-1H-pyrazol-1-yl)methyl)-N-(2-hydroxyethyl) benzamide]", "pEC50": 7.38},
      {"smiles": "Cc1c(Cl)cccc1OCCCC(=O)N1CCSc2c(-c3cnn(Cc4cccc(C(=O)N[C@@H](CC(N)=O)C(=O)O)c4)c3)cccc21", "note": "[Example 614, (S)-4-Amino-2-(3-((4-(4-(4-(3-chloro-2-methylphenoxy)butanoyl)-3,4-dihydro-2H-benzo[b][1,4]thiazin-8-yl)-1H-pyrazol-1-yl)methyl)benzamido)-4-oxobutanoic acid]", "pEC50": 7.34},
      {"smiles": "Cc1c(Cl)cccc1OCCCC(=O)N1CCSc2c(-c3cnn(Cc4cccc(C(=O)N[C@@H](CC[N+](C)(C)C)C(=O)O)c4)c3)cccc21", "note": "[Example 617, (S)-3-Carboxy-3-(3-((4-(4-(4-(3-chloro-2-methylphenoxy)butanoyl)-3,4-dihydro-2H-benzo[b][1,4]thiazin-8-yl)-1H-pyrazol-1-yl)methyl)benzamido)-N,N,N-trimethylpropan-1-aminium, TFA salt]", "pEC50": 6.76},
      {"smiles": "Cc1cccc(OCCCC(=O)N2CCOc3c(-c4cnn(Cc5cccc(C(=O)N[C@@H](CC(=O)O)C(=O)O)c5Cl)c4)cccc32)c1C", "note": "[Example 624, (S)-2-(2-Chloro-3-((4-(4-(4-(2,3-dimethylphenoxy)butanoyl)-3,4-dihydro-2H-benzo[b][1,4]oxazin-8-yl)-1H-pyrazol-1-yl)methyl)benzamido)succinic acid]", "pEC50": 5.86},
      {"smiles": "Cc1c(Cl)cccc1OCCOC(=O)N1CCSc2c(-c3cnn(Cc4cccc(C(=O)NCCS(=O)(=O)O)c4Cl)c3)cccc21", "note": "[Example 626, 2-(2-Chloro-3-((4-(4-((2-(3-chloro-2-methylphenoxy)ethoxy)carbonyl)-3,4-dihydro-2H-benzo[b][1,4]thiazin-8-yl)-1H-pyrazol-1-yl)metehyl)benzamido)ethanesulfonic acid]", "pEC50": 6.73},
      {"smiles": "Cc1c(Cl)cccc1OCCOC(=O)N1CCSc2c(-c3cnn(Cc4cccc(C(=O)NCCC(=O)O)c4Cl)c3)cccc21", "note": "[Example 628, 3-(2-Chloro-3-((4-(4-((2-(3-chloro-2-methylphenoxy)ethoxy)carbonyl)-3,4-dihydro-2H-benzo[b][1,4]thiazin-8-yl)-1H-pyrazol-1-yl)methyl)benzamido)propanoic acid]", "pEC50": 6.71},
      {"smiles": "Cc1c(Cl)cccc1OCCCC(=O)N1CCSc2c(-c3cnn(Cc4cccc(C(=O)NCCC[C@H](N)C(=O)OC(C)C)c4)c3)cccc21", "note": "[Example 635, (S)-Isopropyl 2-amino-5-(3-((4-(4-(4-(3-chloro-2-methylphenoxy)butanoyl)-3,4-dihydro-2H-benzo[b][1,4]thiazin-8-yl)-1H-pyrazol-1-yl)methyl)benzamido)pentanoate, TFA salt]", "pEC50": 6.75},
      {"smiles": "Cc1c(Cl)cccc1OCCOC(=O)N1C[C@@H]2C[C@@H]2c2c(-c3cnn(Cc4cc(C(=O)NCS(=O)(=O)O)ccc4Cl)c3)cccc21", "note": "[Example 662, (4-Chloro-3-((4-((1aR,7bS)-3-((2-(3-chloro-2-methylphenoxy)ethoxy)carbonyl)-1a,2,3,7b-tetrahydro-1H-cyclopropa[c]quinolin-7-yl)-1H-pyrazol-1-yl)methyl)benzamido) methanesulfonic acid]", "pEC50": 7.44},
      {"smiles": "COC(=O)[C@@H](CCC(=O)O)NC(=O)c1ccc(Cl)c(Cn2cc(-c3cccc4c3[C@H]3C[C@H]3CN4C(=O)OCCOc3cccc(Cl)c3C)cn2)c1", "note": "[Example 672, (R)-4-(4-Chloro-3-((4-((1aR,7bS)-3-((2-(3-chloro-2-methylphenoxy)ethoxy)carbonyl)-1a,2,3,7b-tetrahydro-1H-cyclopropa[c]quinolin-7-yl)-1H-pyrazol-1-yl)methyl)benzamido)-5-methoxy-5-oxopentanoic acid]", "pEC50": 7.37},
      {"smiles": "Cc1c(Cl)cccc1OCCOC(=O)N1C[C@@H]2C[C@@H]2c2c(-c3cnn(Cc4cc(C(=O)NC(CNS(C)(=O)=O)C(=O)O)ccc4Cl)c3)cccc21", "note": "(stereo partly drawn) [Example 685, 2-(4-Chloro-3-((4-((1aR,7bS)-3-((2-(3-chloro-2-methylphenoxy)ethoxy)carbonyl)-1a,2,3,7b-tetrahydro-1H-cyclopropa[c]quinolin-7-yl)-1H-pyrazol-1-yl)methyl)benzamido)-3-(methylsulfonamido)propanoic acid]", "pEC50": 7.31},
      {"smiles": "Cc1c(Cl)cccc1OCCOC(=O)N1C[C@@H]2C[C@@H]2c2c(-c3cnn(Cc4cc(C(=O)N[C@@H](CCC[N+](C)(C)C)C(=O)O)ccc4Cl)c3)cccc21", "note": "[Example 690, (S)-4-Carboxy-4-(4-chloro-3-((4-((1aR,7bS)-3-((2-(3-chloro-2-methylphenoxy)ethoxy)carbonyl)-1a,2,3,7b-tetrahydro-1H-cyclopropa[c]quinolin-7-yl)-1H-pyrazol-1-yl)methyl)benzamido)-N,N,N-trimethylbutan-1-aminium, TFA salt]", "pEC50": 7.35},
      {"smiles": "Cc1c(Cl)cccc1OCCOC(=O)N1C[C@@H]2C[C@@H]2c2c(-c3cnn(Cc4cc(C(=O)N5C[C@@H](O)C[C@H]5C(=O)O)ccc4Cl)c3)cccc21", "note": "[Example 693, (2S,4S)-1-(4-Chloro-3-((4-((1aR,7bS)-3-((2-(3-chloro-2-methylphenoxy)ethoxy)carbonyl)-1a,2,3,7b-tetrahydro-1H-cyclopropa[c]quinolin-7-yl)-1H-pyrazol-1-yl)methyl)benzoyl)-4-hydroxypyrrolidine-2-carboxylic acid]", "pEC50": 6.73},
      {"smiles": "Cc1c(Cl)cccc1OCCOC(=O)N1C[C@@H]2C[C@@H]2c2c(-c3cnn(Cc4cc(C(=O)NC5(CC(=O)O)COC5)ccc4Cl)c3)cccc21", "note": "[Example 698, 2-(3-(4-Chloro-3-((4-((1aR,7bS)-3-((2-(3-chloro-2-methylphenoxy)ethoxy)carbonyl)-1a,2,3,7b-tetrahydro-1H-cyclopropa[c]quinolin-7-yl)-1H-pyrazol-1-yl)methyl)benzamido)oxetan-3-yl)acetic acid]", "pEC50": 7.55}
    ]}
  ]
}
